Laboratory results from the OPERA property sets (Mansouri et al. 2018).
In brackets after ≈: the same amount, converted by molar mass.

Details: not given

Compound	logP	solubility [µM]
CCN(CC)c1ccc2c(-c3ccccc3C(=O)O)c3ccc(N(CC)CC)cc3[o+]c2c1.[Cl-]	1.95	–
O=[N+]([O-])c1ccc(Cl)cc1C(F)(F)F	3.2	–
Cc1ccc(O)cc1[N+](=O)[O-]	2.18	–
COc1cccc2ccccc12	3.45	–
CC1CC(C)(C)CC(OOC(C)(C)C)(OOC(C)(C)C)C1 (centres undefined)	6.53	1.98 (≈ 0.6 µg/mL)
CCCCOCCOP(=O)(OCCOCCCC)OCCOCCCC	3.75	–
OC(c1ccccc1)c1ccc(Cl)cc1 (centres undefined)	3.61	–
BrCC(CBr)(CBr)CBr	3.99	–
CC(C)COc1ccc2ccccc2c1	–	6.14 (≈ 1.23 µg/mL)
O=C1CCCCC1C1=CCCCC1 (centres undefined)	3.17	–
C=CCOP(=O)(OCC=C)OCC=C	1.76	–
S=C(NC1CCCCC1)NC1CCCCC1	3.69	–
CC(C)=CC=C(C)C	3.5	–
C=CC(=C)CCC=C(C)C	4.17	–
O=C1CCCCCCCCCCCN1	2.92	–
CC(C)(C)c1cc(C(C)(C)C)c(O)c(C(C)(C)C)c1	6.06	–
N#CSCSc1nc2ccccc2s1	3.3	–
Oc1cc(Cl)ccc1Oc1ccc(Cl)cc1Cl	4.76	–
Cc1ccc(C(C)(C)C)cc1	5.17	–
CC(C)(OOC(C)(C)c1ccccc1)c1ccccc1	5.5	–
Nc1cccc2c1C(=O)c1ccccc1C2=O	3.74	–
CCCCC(CC)COC(=O)/C=C/C(=O)OCC(CC)CCCC (centres undefined)	–	294 (≈ 100 µg/mL)
CC(C)(O)CCCC1=CCC(C=O)CC1 (centres undefined)	–	29000 (≈ 6100 µg/mL)
Oc1ccc(Cc2ccccc2)cc1	3.47	–
CC(CCl)OP(=O)(OC(C)CCl)OC(C)CCl (centres undefined)	2.59	–
COC(=O)c1cccc(C(=O)OC)c1	–	1490 (≈ 290 µg/mL)
O=C1c2ccccc2C(=O)c2c1ccc1ccccc21	4.4	–

Compound	logP	solubility [µM]
Nc1ccc2c(c1)C(=O)c1ccccc1C2=O	3.31	–
C=Cc1cccc(CC)c1	4.11	–
COc1ccc(C(=O)c2ccccc2)c(O)c1	3.79	–
Cc1cc(=O)nc(C(C)C)[nH]1	0.55	–
ClCC(Br)CBr (centres undefined)	2.96	–
CNc1cccc(C)c1	2.19	–
CC=C1CC2C=CC1C2 (centres undefined)	3.82	–
CC(C)(C)C(=O)O	1.48	–
ClC1C(Br)C(Br)C(Br)C(Br)C1Br (centres undefined)	4.72	–
COc1ccccc1OCC(O)COC(N)=O (centres undefined)	0.61	–
ClC(c1ccccc1)(c1ccccc1)c1ccccc1	5.25	–
N#CCCNCCC#N	-1.34	–
ClCC(Cl)CCl	2.27	–
C=CC1CC=CCC1 (centres undefined)	3.93	–
S=C(SSSSC(=S)N1CCCCC1)N1CCCCC1	2.8	–
CC(C)CN1CCOCC1	1.17	–
C=Cc1ccc(CC)cc1	4.19	–
CC(C)(C)c1ccc(O)c(C(C)(C)C)c1	5.19	–
CCOC(=O)C(O)(c1ccc(Cl)cc1)c1ccc(Cl)cc1	4.74	–
ClCCOC(c1ccccc1)c1ccccc1	4.38	–
CCC(C)=NO	0.63	–
Oc1c(Cl)cc(Cl)c2ccccc12	4.23	–
Cc1ccc(Cl)c(O)c1	2.9	–
OCc1ccc(Cl)c(Cl)c1	2.74	–
CCCCCC1C(=O)CCC1CC(=O)OC (centres undefined)	–	1240 (≈ 280 µg/mL)
Cc1ccc([N+](=O)[O-])cc1O	2.47	–
Cc1ccc(C)c(Cc2ccccc2)c1	5.65	–

Compound	logP	solubility [µM]
O=P(OC(CCl)CCl)(OC(CCl)CCl)OC(CCl)CCl	3.65	–
O=P(OCCCl)(OCCCl)OCCCl	1.44	–
CC(C)CCOCCC(C)C	4.25	–
CCOP(=S)(Oc1ccc([N+](=O)[O-])cc1)c1ccccc1 (centres undefined)	4.78	–
ClCC(Cl)(Cl)CCl	2.72	–
CC(C)C(O)C(C)(C)CO (centres undefined)	1.24	–
CCCCC(CC)CN1C(=O)C2C(C1=O)C1(C(C)C)C=CC2(C)CC1 (centres undefined)	5.96	–
COc1c(N)cccc1[N+](=O)[O-]	1.78	–
CCNc1cccc2ccccc12	3.45	–
C=CC(OC(C)=O)OC(C)=O	0.78	–
CCCCOC(=O)CC(CC(=O)OCCCC)(OC(C)=O)C(=O)OCCCC	–	12.4 (≈ 5 µg/mL)
C=Cc1ccccn1	1.54	–
O=C1c2ccccc2-c2cccc3cccc1c23	4.81	–
CC(=O)CC(=O)Nc1ccc(-c2ccc(NC(=O)CC(C)=O)c(C)c2)cc1C	1.75	–
BrC(Br)Br	2.4	–
ClC(Cl)C(Cl)C(Cl)Cl	3.23	–
Cc1cc(Cc2cc(C)cc(C(C)(C)C)c2O)c(O)c(C(C)(C)C)c1	6.25	–
CCc1ccccc1[N+](=O)[O-]	2.58	–
COC(=O)c1ccccc1C(=O)c1ccccc1	2.7	–
COc1ccc(N)c([N+](=O)[O-])c1	1.94	–
C=C(C)C(=O)OCC(CC)(COC(=O)C(=C)C)COC(=O)C(=C)C	4.39	–
C=CC(=C)C	2.42	–
CC(C)[N+](=O)[O-]	0.93	–
C=C(C)CC(C)(C)C	4.55	–
OCC(O)c1ccccc1Cl (centres undefined)	1.17	–
Nc1ccc(Cc2ccc(N)c(Cl)c2)cc1Cl	3.91	–

Same assay, conditions: 20 °C

Compound	solubility [µM]
COC(C)CCOC(C)=O (centres undefined)	31500 (≈ 4600 µg/mL)

Same assay, conditions: 25 °C

Compound	solubility [µM]
O=[N+]([O-])c1ccc(Cl)cc1C(F)(F)F	443 (≈ 100 µg/mL)
CC(C)=CCC/C(C)=C/CO	1490 (≈ 230 µg/mL)
O=C(OOC(=O)c1ccccc1)c1ccccc1	37.6 (≈ 9.1 µg/mL)
COc1cccc2ccccc12	63.2 (≈ 10 µg/mL)
N#CCc1ccccc1	854 (≈ 100 µg/mL)
Oc1cc(Cl)ccc1Cl	12300 (≈ 2000 µg/mL)
CCCCCCCCC#N	503 (≈ 70 µg/mL)
O=CC(Cl)(Cl)Cl	204000 (≈ 30000 µg/mL)
N=C(Nc1ccccc1)Nc1ccccc1	4730 (≈ 1000 µg/mL)
OC(c1ccccc1)c1ccc(Cl)cc1 (centres undefined)	325 (≈ 71 µg/mL)
Oc1cccc(Cl)c1Cl	22100 (≈ 3600 µg/mL)
O=[N+]([O-])c1cc(Cl)cc(Cl)c1O	81.7 (≈ 17 µg/mL)
Nc1c(Cl)cc(Cl)cc1Cl	204 (≈ 40 µg/mL)
c1ccc2sc(SSc3nc4ccccc4s3)nc2c1	30.1 (≈ 10 µg/mL)
CC(C)=CC=C(C)C	290 (≈ 32 µg/mL)
Cc1ccsc1	4070 (≈ 400 µg/mL)
C=CCc1ccc(OC)c(OC)c1	2810 (≈ 500 µg/mL)
C=CC(=C)CCC=C(C)C	41.1 (≈ 5.6 µg/mL)
COc1cccc([N+](=O)[O-])c1	3270 (≈ 500 µg/mL)
O=C1CCCCCCCCCCCN1	1470 (≈ 290 µg/mL)
Nc1cccc2cccc(N)c12	5370 (≈ 850 µg/mL)
CC(C)(C)c1cc(C(C)(C)C)c(O)c(C(C)(C)C)c1	133 (≈ 35 µg/mL)
Nc1ccc(Cl)cc1Cl	3830 (≈ 620 µg/mL)
CCCC=C(C=O)CC	4640 (≈ 586 µg/mL)

Compound	solubility [µM]
CC(C)(OOC(C)(C)c1ccccc1)c1ccccc1	1.7 (≈ 0.46 µg/mL)
ClC1CCCCC1	4220 (≈ 500 µg/mL)
C=C(C)C(=O)OCCO	768000 (≈ 100000 µg/mL)
Oc1ccc(Cc2ccccc2)cc1	397 (≈ 73.2 µg/mL)
CC(CCl)OP(=O)(OC(C)CCl)OC(C)CCl (centres undefined)	3660 (≈ 1200 µg/mL)
CCCCCCCCN(CCCCCCCC)CCCCCCCC	0.141 (≈ 0.05 µg/mL)
c1ccc(Nc2cccc3ccccc23)cc1	274 (≈ 60 µg/mL)
O=C(O)c1ccccc1-c1ccccc1C(=O)O	5200 (≈ 1260 µg/mL)
CNc1cccc(C)c1	8910 (≈ 1080 µg/mL)
CC=C1CC2C=CC1C2 (centres undefined)	74 (≈ 8.9 µg/mL)
CCCCNCCCC	36400 (≈ 4700 µg/mL)
CCc1cccc(CC)c1	179 (≈ 24 µg/mL)
C=C(C)CCl	15500 (≈ 1400 µg/mL)
OCC(CO)(CBr)CBr	145000 (≈ 38000 µg/mL)
CC(C)CN1CCOCC1	195000 (≈ 28000 µg/mL)
Nc1cccc2c(N)cccc12	2400 (≈ 380 µg/mL)
CC(C)(C)c1ccc(O)c(C(C)(C)C)c1	170 (≈ 35 µg/mL)
N#Cc1ccccc1C#N	3080 (≈ 395 µg/mL)
OCc1ccc(Cl)c(Cl)c1	9040 (≈ 1600 µg/mL)
Cc1ccc([N+](=O)[O-])cc1O	6530 (≈ 1000 µg/mL)
CC(=O)Nc1ccccc1O	5820 (≈ 880 µg/mL)
ClCC(Cl)(Cl)CCl	2640 (≈ 480 µg/mL)
O=[N+]([O-])c1c(Cl)cc(Cl)cc1Cl	27.6 (≈ 6.25 µg/mL)
CC(C)CNCC(C)C	17000 (≈ 2200 µg/mL)

Compound	solubility [µM]
CCCCCC(=O)CCCCC	294 (≈ 50 µg/mL)
CC(=O)N(C)c1ccccc1	112000 (≈ 16700 µg/mL)
CCNc1cccc2ccccc12	642 (≈ 110 µg/mL)
C=CC(OC(C)=O)OC(C)=O	56900 (≈ 9000 µg/mL)
Oc1c(Cl)cccc1Cl	11700 (≈ 1900 µg/mL)
Clc1ccccn1	176000 (≈ 20000 µg/mL)
Oc1cccc(Br)c1	133000 (≈ 23000 µg/mL)
COc1ccc(O)cc1	322000 (≈ 40000 µg/mL)
ClC(Cl)C(Cl)C(Cl)Cl	1900 (≈ 410 µg/mL)
O=C(O)C1C(C(=O)O)C2(Cl)C(Cl)=C(Cl)C1(Cl)C2(Cl)Cl (centres undefined)	9000 (≈ 3500 µg/mL)
CCC(C)c1cccc(C(C)CC)c1O (centres undefined)	8.72 (≈ 1.8 µg/mL)
Cc1cc(Cc2cc(C)cc(C(C)(C)C)c2O)c(O)c(C(C)(C)C)c1	0.0587 (≈ 0.02 µg/mL)
Cc1cc(C)c(O)c(C)c1	8810 (≈ 1200 µg/mL)
C=C1C2CCC(C2)C1(C)C (centres undefined)	33.8 (≈ 4.6 µg/mL)
CCc1ccccc1[N+](=O)[O-]	1590 (≈ 240 µg/mL)
COC(=O)c1ccccc1C(=O)c1ccccc1	333 (≈ 80 µg/mL)
OCc1c(Cl)cccc1Cl	7910 (≈ 1400 µg/mL)
COc1ccc(N)c([N+](=O)[O-])c1	714 (≈ 120 µg/mL)
O=C(O)c1ccc2ccccc2c1	273 (≈ 47 µg/mL)
CCCCOCCOCCOC(C)=O	220000 (≈ 44900 µg/mL)
CNC(=O)Oc1ccccc1C(C)C	2070 (≈ 400 µg/mL)
CN(C)Cc1ccccc1	88800 (≈ 12000 µg/mL)
Cc1ccc(O)c([N+](=O)[O-])c1	4130 (≈ 633 µg/mL)
Oc1c(Cl)cc(Cl)c(Cl)c1Cl	99.2 (≈ 23 µg/mL)
